This passage reports melting point results from patent publication US7342014B2, “Diamine derivatives” (Daiichi Pharmaceutical Co., Ltd., priority 2001, dated 2008).

Where a name gives a salt, the structure may show the parent alone.

Turning to `CN1CCc2nc(C(=O)N[C@@H]3CN(S(C)(=O)=O)CC[C@@H]3NC(=O)c3cc4cc(F)ccc4[nH]3)sc2C1` (relative stereo) (as salt: hydrochloride) [Example 128], the melting point was 216 to 250 °C (dec.).

In the case of `CN1CCc2nc(C(=O)N[C@@H]3CCS(=O)(=O)C[C@@H]3NC(=O)c3cc4cc(Cl)ccc4[nH]3)sc2C1` (relative stereo) (as salt: hydrochloride) [Example 180, N-((3R*,4R*)-3-{[(5-Chloroindol-2-yl)carbonyl]amino}-1,1-dioxohexahydro-1-thiopyran-4-yl)-5-methyl-4,5,6,7-tetrahydrothiazolo[5,4-c]pyridine-2-carboxamide hydrochloride], the melting point lay within 242 to 247 °C.

Regarding `CC(=O)N1C[C@@H](NC(=O)c2cc3cc(Cl)ccc3[nH]2)[C@H](NC(=O)c2nc3c(s2)CN(C(C)C)CC3)C1` (as salt: hydrochloride) [Example 114, N-((3R,4R)-1-Acetyl-4-{[(5-chloroindol-2-yl)carbonyl]-amino}pyrrolidin-3-yl)-5-isopropyl-4,5,6,7-tetrahydro-thiazolo[5,4-c]pyridine-2-carboxamide hydrochloride], the melting point is 254 to 258 °C (dec.). With `COCC(=O)N1CC[C@H](NC(=O)c2cc3cc(F)ccc3[nH]2)[C@H](NC(=O)c2nc3c(s2)CN(C(C)C)CC3)C1` (relative stereo) (as salt: hydrochloride) the figure was 214 to 228 °C (dec.); with `COCC(=O)N1CC[C@H](NC(=O)c2cc3cc(Cl)ccc3[nH]2)[C@H](NC(=O)c2nc3c(s2)CN(C(C)(C)CO)CC3)C1` (relative stereo) (as salt: hydrochloride), 221 to 232 °C (dec.); with `CN1CCc2nc(C(=O)N[C@@H]3CS(=O)(=O)CC[C@H]3NC(=O)c3cc4cc(F)ccc4[nH]3)sc2C1` (relative stereo) (as salt: hydrochloride) [Example 182, N-((3R*,4S*)-4-{[(5-Fluoroindol-2-yl)carbonyl]amino}-1,1-dioxohexahydro-1-thiopyran-3-yl)-5-methyl-4,5,6,7-tetrahydrothiazolo[5,4-c]pyridine-2-carboxamide hydrochloride], 236 to 241 °C. As to `CN1CCc2nc(C(=O)N[C@@H]3CN(C(=O)C(C)(C)O)CC[C@@H]3NC(=O)c3cc4cc(Cl)ccc4[nH]3)sc2C1` (relative stereo) [Example 149, N-[(3R*,4S*)-4-{[(5-Chloroindol-2-yl)carbonyl]amino}-1-(2-hydroxy-2-methylpropanoyl)piperidin-3-yl]-5-methyl-4,5,6,7-tetrahydrothiazolo[5,4-c]pyridine-2-carboxamide], the melting point is 190 °C (dec.). With `CN1CCc2nc(C(=O)N[C@@H]3CN(C(=O)CC(C)(C)C)CC[C@@H]3NC(=O)c3cc4cc(Cl)ccc4[nH]3)sc2C1` (relative stereo) (as salt: hydrochloride) [Example 136, N-[(3R*,4S*)-4-{[(5-Chloroindol-2-yl)carbonyl]amino}-1-(3,3-dimethylbutanoyl)piperidin-3-yl]-5-methyl-4,5,6,7-tetrahydrothiazolo[5,4-c]pyridine-2-carboxamide hydrochloride] the figure was 260 to 265 °C (dec.); with `COC(=O)N1CC[C@H](NC(=O)c2cc3cc(Cl)ccc3[nH]2)[C@H](NC(=O)c2nc3c(s2)CN(C)CC3)C1` (relative stereo) (as salt: hydrochloride) [Example 129, Methyl (3R*,4S*)-4-{[(5-chloroindol-2-yl)carbonyl]amino}-3-{[(5-methyl-4,5,6,7-tetrahydrothiazolo[5,4-c]pyridin-2-yl)carbonyl]amino}piperidine-1-carboxylate hydrochloride], 248 to 253 °C (dec.). Then `CN1CCc2nc(C(=O)N[C@@H]3CN(C(=O)C4CC4)CC[C@@H]3NC(=O)c3cc4cc(Cl)ccc4[nH]3)sc2C1` (relative stereo) (as salt: hydrochloride) [Example 138, N-[(3R*,4S*)-4-{[(5-Chloroindol-2-yl)carbonyl]amino}-1-(cyclopropylcarbonyl)piperidin-3-yl]-5-methyl-4,5,6,7-tetrahydrothiazolo[5,4-c]pyridine-2-carboxamide hydrochloride], with 280 to 286 °C (dec.); and `COC1CC(C(=O)N2CC[C@H](NC(=O)c3cc4cc(Cl)ccc4[nH]3)[C@H](NC(=O)c3nc4c(s3)CN(C)CC4)C2)C1` (relative stereo) (as salt: hydrochloride), with 191 °C (dec.); and `CN1CCc2nc(C(=O)N[C@@H]3CCN(C(=O)OC(C)(C)C)C[C@@H]3NC(=O)c3cc4cc(Cl)ccc4[nH]3)sc2C1` (relative stereo) [Example 119, tert-Butyl (3R*,4S*)-3-{[(5-chloroindol-2-yl)carbonyl]-amino}-4-{[(5-methyl-4,5,6,7-tetrahydrothiazolo[5,4-c]-pyridin-2-yl)carbonyl]amino}piperidine-1-carboxylate], with 187 to 189 °C (dec.).

Consider `CN1CCc2nc(C(=O)N[C@@H]3CCS(=O)(=O)C[C@@H]3NC(=O)c3cc4cc(F)ccc4[nH]3)sc2C1` (relative stereo) (as salt: hydrochloride) [Example 183, N-((3R*,4R*)-3-{[(5-Fluoroindol-2-yl)carbonyl]amino}-1,1-dioxohexahydro-1-thiopyran-4-yl)-5-methyl-4,5,6,7-tetrahydrothiazolo[5,4-c]pyridine-2-carboxamide hydrochloride], for which the melting point lay in the range of 244 to 249 °C. Then `CCOC(=O)N1CC[C@@H](NC(=O)c2nc3c(s2)CN(C)CC3)[C@@H](NC(=O)c2cc3cc(Cl)ccc3[nH]2)C1` (relative stereo) (as salt: hydrochloride), with 213 to 225 °C (dec.). Then `CN1CCc2nc(C(=O)N[C@@H]3CS(=O)(=O)CC[C@H]3NC(=O)c3cc4cc(Cl)ccc4[nH]3)sc2C1` (relative stereo) (as salt: hydrochloride) [Example 181, N-((3R*,4S*)-4-{[(5-Chloroindol-2-yl)carbonyl]amino}-1,1-dioxohexahydro-1-thiopyran-3-yl)-5-methyl-4,5,6,7-tetrahydrothiazolo[5,4-c]pyridine-2-carboxamide hydrochloride], with 244 to 249 °C; and `CCC(=O)N1CC[C@H](NC(=O)c2cc3cc(Cl)ccc3[nH]2)[C@H](NC(=O)c2nc3c(s2)CN(C)CC3)C1` (relative stereo) (as salt: hydrochloride) [Example 133, N-((3R*,4S*)-4-{[(5-Chloroindol-2-yl)carbonyl]amino}-1-propionylpiperidin-3-yl)-5-methyl-4,5,6,7-tetrahydro-thiazolo[5,4-c]pyridine-2-carboxamide hydrochloride], with 214 to 228 °C (dec.). In the case of `CN1CCc2nc(C(=O)N[C@@H]3CN(C(=O)C4CCCC4)CC[C@@H]3NC(=O)c3cc4cc(Cl)ccc4[nH]3)sc2C1` (relative stereo) (as salt: hydrochloride), the melting point is 254 to 260 °C (dec.). Then `CN1CCc2nc(C(=O)N[C@@H]3CN(C(=O)OC(C)(C)C)C[C@H]3NC(=O)c3cc4cc(Cl)ccc4[nH]3)sc2C1` [Example 94, tert-Butyl (3R,4R)-3-{[(5-chloroindol-2-yl)carbonyl]-amino}-4-{[(5-methyl-4,5,6,7-tetrahydrothiazolo[5,4-c]-pyridin-2-yl)carbonyl]amino}pyrrolidine-1-carboxylate], with 190 to 192 °C.
